Reference: PubChem BioAssay AID264 (DTP/NCI, 2004)
“And” between values parts separate entries of the source, which are not always exact repeats. Equal entries are not always repeated. Inconclusive results are not listed.

System: nude mice, LX-1 lung xenograft intrarenal, tumor weight T/C
Test: NCI In Vivo Anticancer Drug Screen. Data for tumor model Human Lung LX-1 Xenograft (intrarenal inoculation) in NU/NU Swiss (nude) mice
Settings: endpoint: mean tumor weight change, higher = larger tumour
Summary of the method: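 Activity was scored by measuring tumors in treated animals and in vehicle controls, then reporting the treated result as a fraction of the control result.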

[1] = dose: 300.0 mg/kg/injection, schedule: Q04DX003 (sc), vehicle: saline with Tween-80
[2] = dose: 600.0 mg/kg/injection, schedule: Q04DX003 (sc), vehicle: saline with Tween-80
[3] = dose: 2400.0 mg/kg/injection, schedule: Q04DX003 (sc), vehicle: saline with Tween-80
[4] = dose: 150.0 mg/kg/injection, schedule: Q04DX003 (sc), vehicle: saline
[5] = dose: 200.0 mg/kg/injection, schedule: Q01DX010 (sc), vehicle: Klucel (hydroxypropylcellulose) (HPC)

For `O=C(Nc1cccc2c(OC(=O)C(Cl)Cl)c(N=Nc3ccc(S(=O)(=O)Nc4nccs4)cc3)cc(N=Nc3ccc(S(=O)(=O)Nc4nccs4)cc3)c12)C(Cl)Cl` (tested in a mixture with another compound), the T/C (dose: 25.0 mg/kg/injection, schedule: Q04DX003 (sc), vehicle: saline with Tween-80) was 104 % of control, the T/C (dose: 50.0 mg/kg/injection, schedule: Q04DX003 (sc), vehicle: saline with Tween-80) was 92 % of control and the T/C (dose: 100.0 mg/kg/injection, schedule: Q04DX003 (sc), vehicle: saline with Tween-80) was 116 % of control. For the same compound, the T/C [1] was 90 % of control, the T/C [2] was 120 % of control and the T/C (dose: 1200.0 mg/kg/injection, schedule: Q04DX003 (sc), vehicle: saline with Tween-80) was 83 % of control. The T/C [3] was 120 % of control.

`COC1OC(CO)C(O)C(NC(=O)N(C)N=O)C1O` (centres undefined) was tested, and the T/C (dose: 800.0 mg/kg/injection, schedule: Q04DX003 (sc), vehicle: saline) was 31 % of control and the T/C (dose: 900.0 mg/kg/injection, schedule: Q04DX003 (sc), vehicle: saline) was -100 % of control.

For `CC(=O)c1c(O)c(C)c(O)c2c1OC1=CC(=O)C(C(C)=O)C(=O)C12C` (centres undefined), the T/C (dose: 25.0 mg/kg/injection, schedule: Q01DX010 (sc), vehicle: sodium bicarbonate) was 207 % of control, the T/C (dose: 50.0 mg/kg/injection, schedule: Q01DX010 (sc), vehicle: sodium bicarbonate) was 102 % of control and the T/C (dose: 200.0 mg/kg/injection, schedule: Q01DX010 (sc), vehicle: sodium bicarbonate) was 82 % of control and 104 % of control.

With `COc1ccc(CC2C(=O)NC(C)C(=O)N(C)C3Cc4ccc(cc4)Oc4cc(ccc4O)CC(C(=O)NC(C)C(=O)NC(C)C(=O)N2C)N(C)C3=O)cc1` (centres undefined) the T/C (dose: 4.0 mg/kg/injection, schedule: Q04DX003 (sc), vehicle: saline with Tween-80) was 61 % of control, the T/C (dose: 8.0 mg/kg/injection, schedule: Q04DX003 (sc), vehicle: saline with Tween-80) was 25 % of control and the T/C (dose: 16.0 mg/kg/injection, schedule: Q04DX003 (sc), vehicle: saline with Tween-80) was 34 % of control. The T/C (dose: 32.0 mg/kg/injection, schedule: Q04DX003 (sc), vehicle: saline with Tween-80) was 27 % of control.

In the case of `[Cl][Sn]([c]1ccccc1)[c]1ccccc1`, the T/C [4] is reported as 92 % of control and the T/C (dose: 600.0 mg/kg/injection, schedule: Q04DX003 (sc), vehicle: saline) is reported as 84 % of control.

`CC(C)[C@](O)(C(=O)OCC1=CC[N+]2([O-])CC[C@@H](O)[C@@H]12)[C@H](C)O` (some centres undefined) was tested, and the T/C (dose: 50.0 mg/kg/injection, schedule: Q01DX010 (sc), vehicle: water) was 59 % of control, the T/C (dose: 100.0 mg/kg/injection, schedule: Q01DX010 (sc), vehicle: water) was 44 % of control and the T/C (dose: 200.0 mg/kg/injection, schedule: Q01DX010 (sc), vehicle: water) was 58 % of control. For the same compound, the T/C (dose: 400.0 mg/kg/injection, schedule: Q01DX010 (sc), vehicle: water) was 36 % of control.

`C=C1C(=O)C2=CC1CCC(=O)C1(C)CCC(OC(C)=O)C(C)(C)C1CC2O` (centres undefined) was tested, and the T/C (dose: 60.0 mg/kg/injection, schedule: Q04DX003 (sc), vehicle: Klucel (hydroxypropylcellulose) (HPC)) was 121 % of control and the T/C (dose: 120.0 mg/kg/injection, schedule: Q04DX003 (sc), vehicle: Klucel (hydroxypropylcellulose) (HPC)) was 57 % of control.

`COC1C(O)CC(OC2CC(OC3CC(O[C@@H]4C(=O)c5c(cc6cc(OC7CC(OC8CC(O)C(O)C(C)O8)C(O)C(C)O7)c(C)c(O)c6c5O)C[C@H]4[C@H](OC)C(=O)[C@@H](O)[C@@H](C)O)OC(C)C3O)OC(C)C2O)OC1C` (some centres undefined) was tested, and the T/C (dose: 0.18 mg/kg/injection, schedule: Q01DX010 (sc), vehicle: saline) was 62 % of control and the T/C (dose: 0.37 mg/kg/injection, schedule: Q01DX010 (sc), vehicle: saline) was 32 % of control.

`OC(CCl)CN1CC[N+]2(CC1)CC[N+]1(CCN(CC(O)CCl)CC1)CC2` (centres undefined) was tested, and the T/C (dose: 128.0 mg/kg/injection, schedule: Q01DX010 (sc), vehicle: water) was 78 % of control and the T/C (dose: 256.0 mg/kg/injection, schedule: Q01DX010 (sc), vehicle: water) was 59 % of control.

`CC(Cc1ccc(O)c(O)c1)C(C)Cc1ccc(O)c(O)c1` (centres undefined) was tested, and the T/C (dose: 300.0 mg/kg/injection, schedule: Q04DX003 (sc), vehicle: saline + alcohol) was 107 % of control, the T/C (dose: 600.0 mg/kg/injection, schedule: Q04DX003 (sc), vehicle: saline + alcohol) was 90 % of control and the T/C (dose: 1200.0 mg/kg/injection, schedule: Q04DX003 (sc), vehicle: saline + alcohol) was 104 % of control. For the same compound, the T/C (dose: 2400.0 mg/kg/injection, schedule: Q04DX003 (sc), vehicle: saline + alcohol) was 66 % of control.

In the case of `CO[C@H]1Nc2c(ccc(C)c2O)C(=O)N2C=C(/C=C/C(N)=O)C[C@@H]12`, the T/C (dose: 0.25 mg/kg/injection, schedule: Q04DX003 (sc), vehicle: saline + alcohol) is reported as 48 % of control, the T/C (dose: 0.5 mg/kg/injection, schedule: Q04DX003 (sc), vehicle: saline + alcohol) is reported as 75 % of control and the T/C (dose: 1.0 mg/kg/injection, schedule: Q04DX003 (sc), vehicle: saline + alcohol) is reported as 115 % of control. For the same compound, the T/C (dose: 2.0 mg/kg/injection, schedule: Q04DX003 (sc), vehicle: saline + alcohol) was 39 % of control.

In the case of `O=P1(NCCCl)OCCCN1CCCl` (centres undefined), the T/C (dose: 75.0 mg/kg/injection, schedule: Q04DX003 (sc), vehicle: saline) is reported as 93 % of control and the T/C [4] is reported as 109 % of control.

`Nc1ccccc1N` was tested, and the T/C (dose: 25.0 mg/kg/injection, schedule: Q01DX010 (sc), vehicle: Klucel (hydroxypropylcellulose) (HPC)) was 55 % of control, the T/C (dose: 100.0 mg/kg/injection, schedule: Q01DX010 (sc), vehicle: Klucel (hydroxypropylcellulose) (HPC)) was 66 % of control and 75 % of control and the T/C [5] was 83 % of control.

`CCC(=O)Sc1ccccc1C(=O)Nc1ccc(Cl)cc1` was tested, and the T/C [1] was 97 % of control, the T/C [2] was 91 % of control and the T/C [3] was 98 % of control.

With `O=C([CH-]C(=O)C(F)(F)F)c1ccccc1.O=C([CH-]C(=O)C(F)(F)F)c1ccccc1.O=C([CH-]C(=O)C(F)(F)F)c1ccccc1.O=C([CH-]C(=O)C(F)(F)F)c1ccccc1.[Eu+3].c1ccncc1` the T/C (dose: 50.0 mg/kg/injection, schedule: Q01DX010 (sc), vehicle: Klucel (hydroxypropylcellulose) (HPC)) was 85 % of control, the T/C [5] was 49 % of control and the T/C (dose: 400.0 mg/kg/injection, schedule: Q01DX010 (sc), vehicle: Klucel (hydroxypropylcellulose) (HPC)) was 40 % of control. For the same compound, the T/C (dose: 800.0 mg/kg/injection, schedule: Q01DX010 (sc), vehicle: Klucel (hydroxypropylcellulose) (HPC)) was 65 % of control.

For `CC1=C(C)C(=O)O[C@@H]([C@](C)(O)[C@]2(O)CC[C@@]3(O)[C@@H]4C[C@H]5O[C@]56[C@@H](O)C=CC(=O)[C@]6(C)[C@H]4CC[C@]23C)C1`, the T/C (dose: 4.0 mg/kg/injection, schedule: Q01DX010 (sc), vehicle: saline) was 61 % of control and the T/C (dose: 64.0 mg/kg/injection, schedule: Q01DX010 (sc), vehicle: saline) was 121 % of control.

In the case of `Cc1ccccc1SSc1ccccc1C`, the T/C (dose: 200.0 mg/kg/injection, schedule: Q01DX010 (sc), vehicle: saline with Tween-80) is reported as 268 % of control and the T/C (dose: 400.0 mg/kg/injection, schedule: Q01DX010 (sc), vehicle: saline with Tween-80) is reported as 99 % of control.

For `CCc1ccc(C2=C(O)C(=O)C(c3ccccc3)=C(O)C2=O)cc1`, the T/C (dose: 300.0 mg/kg/injection, schedule: Q04DX003 (sc), vehicle: Klucel (hydroxypropylcellulose) (HPC)) was 104 % of control, the T/C (dose: 600.0 mg/kg/injection, schedule: Q04DX003 (sc), vehicle: Klucel (hydroxypropylcellulose) (HPC)) was 49 % of control and the T/C (dose: 1200.0 mg/kg/injection, schedule: Q04DX003 (sc), vehicle: Klucel (hydroxypropylcellulose) (HPC)) was 36 % of control.

With `Cc1cc(NCCCCCCCCNc2cc(C)nc3cc(N(C)C)ccc23)c2ccc(N(C)C)cc2n1` the T/C (dose: 18.75 mg/kg/injection, schedule: Q01DX010 (sc), vehicle: saline with Tween-80) was 56 % of control, the T/C (dose: 37.5 mg/kg/injection, schedule: Q01DX010 (sc), vehicle: saline with Tween-80) was 34 % of control and 45 % of control and the T/C (dose: 75.0 mg/kg/injection, schedule: Q04DX003 (sc), vehicle: distilled water + Tween-80 + alcohol) was 42 % of control and 60 % of control. The T/C (dose: 150.0 mg/kg/injection, schedule: Q04DX003 (sc), vehicle: distilled water + Tween-80 + alcohol) was 61 % of control and 72 % of control, the T/C (dose: 300.0 mg/kg/injection, schedule: Q04DX003 (sc), vehicle: distilled water + Tween-80 + alcohol) was 33 % of control and 39 % of control and the T/C (dose: 600.0 mg/kg/injection, schedule: Q04DX003 (sc), vehicle: distilled water + Tween-80 + alcohol) was 25 % of control.

`BrC[P+](CBr)(CBr)CBr` was tested, and the T/C (dose: 400.0 mg/kg/injection, schedule: Q04DX003 (sc), vehicle: saline with Tween-80) was 156 % of control.

In the case of `NC(=O)Oc1cccc(OC(N)=O)c1`, the T/C (dose: 300.0 mg/kg/injection, schedule: Q04DX003 (sc), vehicle: water) is reported as 105 % of control, the T/C (dose: 600.0 mg/kg/injection, schedule: Q04DX003 (sc), vehicle: water) is reported as 89 % of control and the T/C (dose: 1200.0 mg/kg/injection, schedule: Q04DX003 (sc), vehicle: water) is reported as 67 % of control. The T/C (dose: 2400.0 mg/kg/injection, schedule: Q04DX003 (sc), vehicle: water) was 54 % of control.

With `ClCC[Se](Cl)(Cl)c1ccccc1` the T/C (dose: 12.5 mg/kg/injection, schedule: Q04DX003 (sc), vehicle: saline) was 92 % of control, the T/C (dose: 25.0 mg/kg/injection, schedule: Q04DX003 (sc), vehicle: saline) was 70 % of control and the T/C (dose: 50.0 mg/kg/injection, schedule: Q04DX003 (sc), vehicle: saline) was 46 % of control.
